Data published in ChEMBL document CHEMBL1201862, “PubChem BioAssay data set” (2004).
Several values for one entry are separate records, joined by “and”; a condition that tells them apart may be missing. Equal values may be shown once. Activity calls are given as the source filed them.

Legend:
[1] = biological target: T1, RNA-binding protein pos-1 (Caenorhabditis elegans, UniProt G5EF15); experiment: inhibitors of POS-1/mex-3 RNA binding, dose response, biochemical, fluorescence polarization (AID 1964);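 also: purified POS-1 fused to maltose binding protein made in E. coli; potency of compounds blocking POS-1 binding to fluorescent RNA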
T1 sequence (G5EF15 whole entry): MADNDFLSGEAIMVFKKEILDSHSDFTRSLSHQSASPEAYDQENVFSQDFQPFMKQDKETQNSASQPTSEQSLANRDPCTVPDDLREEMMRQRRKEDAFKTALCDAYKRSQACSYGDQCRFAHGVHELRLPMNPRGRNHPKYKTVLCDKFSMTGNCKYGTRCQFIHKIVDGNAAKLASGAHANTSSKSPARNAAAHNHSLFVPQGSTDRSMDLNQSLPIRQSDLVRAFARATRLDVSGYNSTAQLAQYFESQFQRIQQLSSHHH

[2] = biological target: T2, Zinc finger protein mex-5 (Caenorhabditis elegans, UniProt Q9XUB2); experiment: MEX-5/TCR-2 RNA interaction inhibitors, dose response, biochemical, C. elegans, fluorescence polarization (AID 1960)
T2 sequence (Q9XUB2 whole entry): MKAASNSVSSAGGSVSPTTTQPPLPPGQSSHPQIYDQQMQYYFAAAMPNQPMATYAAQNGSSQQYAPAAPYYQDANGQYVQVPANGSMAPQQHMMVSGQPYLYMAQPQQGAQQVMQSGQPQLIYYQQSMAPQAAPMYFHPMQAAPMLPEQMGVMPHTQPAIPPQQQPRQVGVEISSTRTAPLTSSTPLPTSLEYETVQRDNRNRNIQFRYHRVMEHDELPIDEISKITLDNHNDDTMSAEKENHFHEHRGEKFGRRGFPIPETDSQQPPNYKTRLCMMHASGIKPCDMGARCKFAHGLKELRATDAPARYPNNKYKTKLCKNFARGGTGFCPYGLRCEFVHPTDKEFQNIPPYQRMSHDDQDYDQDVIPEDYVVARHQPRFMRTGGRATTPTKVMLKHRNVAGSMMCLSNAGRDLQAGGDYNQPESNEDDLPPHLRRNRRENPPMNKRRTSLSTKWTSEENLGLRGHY

Phospholipase A2 = Phospholipase A2 (Homo sapiens, UniProt P04054); assay type: functional;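 also: confirmatory dose-response counterscreen on phospholipase A2, testing hits that came from an ultra-high-throughput screen for ATG4B inhibitors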
Phospholipase A2, sequence (P04054 whole entry): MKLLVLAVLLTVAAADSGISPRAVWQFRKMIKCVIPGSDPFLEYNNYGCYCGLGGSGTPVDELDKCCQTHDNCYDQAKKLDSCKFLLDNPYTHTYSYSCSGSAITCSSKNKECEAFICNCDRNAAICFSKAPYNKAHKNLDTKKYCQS

Cysteine protease ATG4B = biological target: T3, Cysteine protease ATG4B (Homo sapiens, UniProt Q9Y4P1); assay type: functional;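 also: Fluorescence-based dose-response confirmation assay measuring inhibition of ATG4B activity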
T3 sequence (Q9Y4P1 whole entry): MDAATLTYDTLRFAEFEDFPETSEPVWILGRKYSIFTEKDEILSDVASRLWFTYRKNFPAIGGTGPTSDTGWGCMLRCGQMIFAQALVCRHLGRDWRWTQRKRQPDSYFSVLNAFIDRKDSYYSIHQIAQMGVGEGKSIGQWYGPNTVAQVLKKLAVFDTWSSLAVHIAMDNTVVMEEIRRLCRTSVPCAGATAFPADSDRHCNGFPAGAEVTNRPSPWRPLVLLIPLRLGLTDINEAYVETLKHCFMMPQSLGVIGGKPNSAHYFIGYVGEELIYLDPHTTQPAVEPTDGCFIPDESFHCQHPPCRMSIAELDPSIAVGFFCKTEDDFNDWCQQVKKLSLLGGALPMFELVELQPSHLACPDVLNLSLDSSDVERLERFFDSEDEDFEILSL

Aminopeptidase N = biological target: T4, Aminopeptidase N (Plasmodium falciparum FcB1/Columbia, UniProt O96935); experiment: P. falciparum M1AAP inhibitors, biochemical, fluorogenic H-Leu-NHMec substrate, 1536-well (AID 1445); design: species or system Plasmodium falciparum 3D7, 3D7
T4 sequence (O96935 whole entry): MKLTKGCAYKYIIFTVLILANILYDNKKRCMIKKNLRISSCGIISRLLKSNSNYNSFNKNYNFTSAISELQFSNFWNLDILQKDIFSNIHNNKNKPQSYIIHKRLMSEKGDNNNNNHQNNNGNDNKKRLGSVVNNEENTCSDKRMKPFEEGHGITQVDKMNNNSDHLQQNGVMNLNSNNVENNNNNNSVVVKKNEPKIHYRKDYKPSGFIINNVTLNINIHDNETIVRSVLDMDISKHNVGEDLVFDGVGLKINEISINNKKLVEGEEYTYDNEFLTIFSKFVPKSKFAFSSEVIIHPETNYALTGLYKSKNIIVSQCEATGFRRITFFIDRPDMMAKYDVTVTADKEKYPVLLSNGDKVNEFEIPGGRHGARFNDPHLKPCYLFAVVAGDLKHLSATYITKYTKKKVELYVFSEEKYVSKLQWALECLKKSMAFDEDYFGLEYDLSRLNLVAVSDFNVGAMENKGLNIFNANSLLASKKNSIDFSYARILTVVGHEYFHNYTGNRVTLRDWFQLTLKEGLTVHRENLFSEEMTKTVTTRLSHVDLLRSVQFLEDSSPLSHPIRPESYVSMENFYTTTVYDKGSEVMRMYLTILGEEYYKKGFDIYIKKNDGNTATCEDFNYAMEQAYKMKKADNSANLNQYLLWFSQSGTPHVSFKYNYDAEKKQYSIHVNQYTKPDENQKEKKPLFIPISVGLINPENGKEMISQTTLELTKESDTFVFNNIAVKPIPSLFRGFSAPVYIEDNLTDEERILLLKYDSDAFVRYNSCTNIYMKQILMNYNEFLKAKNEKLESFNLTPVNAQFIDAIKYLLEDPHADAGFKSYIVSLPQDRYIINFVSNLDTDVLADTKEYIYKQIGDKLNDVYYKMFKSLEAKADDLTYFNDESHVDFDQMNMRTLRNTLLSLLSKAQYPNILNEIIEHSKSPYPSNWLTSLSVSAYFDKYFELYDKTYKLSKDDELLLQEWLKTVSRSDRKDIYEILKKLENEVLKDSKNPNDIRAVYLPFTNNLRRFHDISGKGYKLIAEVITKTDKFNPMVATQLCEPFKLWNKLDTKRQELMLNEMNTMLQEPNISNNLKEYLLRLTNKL

[3] = inhibitors of intracellular T. cruzi replication, confirmation, NIH3T3 host cells, beta-gal luminescence (AID 2044); assay type: functional, cell-based;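 also: intracellular parasites grown in NIH/3T3 mouse fibroblasts as host cells; luminescent beta-galactosidase reporter signal from transgenic T. cruzi replicating inside host cells; inhibitors lower the luminescence signal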
[4] = cytotoxicity toward NIH3T3 fibroblasts, dose response, counter-screen, cell-based, ATP luminescence, mouse fibroblasts (AID 2010); assay type: functional;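 also: cells exposed to compound for about 90 hours before reading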
[5] = NIH-3T3 fibroblast cytotoxicity, dose response, cytotoxicity control, cell-based, fluorescence, Alamar Blue, secondary assay (AID 2327); assay type: functional;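 also: NIH-3T3 mouse fibroblasts cultured with fluconazole at 8 µg/mL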
[6] = C. albicans growth with fluconazole, confirmation, fluorescence, retest (AID 2467); assay type: functional, cell-based
Leucine aminopeptidase = biological target: T5, Leucine aminopeptidase (Plasmodium falciparum 3D7, UniProt Q8IL11); experiment: P. falciparum M17LAP inhibitors, primary screen, biochemical, fluorogenic H-Leu-NHMec substrate, 1536-well (AID 1619); assay type: functional
T5 sequence (Q8IL11 whole entry): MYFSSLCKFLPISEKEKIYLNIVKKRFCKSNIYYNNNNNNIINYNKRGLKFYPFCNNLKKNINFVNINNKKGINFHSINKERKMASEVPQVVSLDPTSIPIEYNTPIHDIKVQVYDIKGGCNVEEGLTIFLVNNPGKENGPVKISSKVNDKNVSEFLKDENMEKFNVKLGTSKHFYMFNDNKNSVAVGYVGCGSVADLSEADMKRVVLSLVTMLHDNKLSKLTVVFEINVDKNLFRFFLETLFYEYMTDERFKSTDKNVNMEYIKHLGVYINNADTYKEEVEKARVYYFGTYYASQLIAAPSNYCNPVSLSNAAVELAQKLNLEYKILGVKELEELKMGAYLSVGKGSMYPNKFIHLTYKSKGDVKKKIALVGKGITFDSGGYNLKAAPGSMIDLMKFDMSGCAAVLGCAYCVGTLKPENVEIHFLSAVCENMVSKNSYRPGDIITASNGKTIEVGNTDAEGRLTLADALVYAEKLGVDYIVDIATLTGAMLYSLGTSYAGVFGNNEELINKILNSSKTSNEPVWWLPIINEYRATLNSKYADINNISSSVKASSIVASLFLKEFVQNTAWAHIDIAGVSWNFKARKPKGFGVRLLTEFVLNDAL

Genome polyprotein = Genome polyprotein (dengue virus type 2, UniProt P29990); experiment: Dengue-2 NS5 methyltransferase inhibitors, primary screen, biochemical, confirmation dose response (AID 588689); assay type: functional
Genome polyprotein, sequence (P29990 2492-3391 limits assumed): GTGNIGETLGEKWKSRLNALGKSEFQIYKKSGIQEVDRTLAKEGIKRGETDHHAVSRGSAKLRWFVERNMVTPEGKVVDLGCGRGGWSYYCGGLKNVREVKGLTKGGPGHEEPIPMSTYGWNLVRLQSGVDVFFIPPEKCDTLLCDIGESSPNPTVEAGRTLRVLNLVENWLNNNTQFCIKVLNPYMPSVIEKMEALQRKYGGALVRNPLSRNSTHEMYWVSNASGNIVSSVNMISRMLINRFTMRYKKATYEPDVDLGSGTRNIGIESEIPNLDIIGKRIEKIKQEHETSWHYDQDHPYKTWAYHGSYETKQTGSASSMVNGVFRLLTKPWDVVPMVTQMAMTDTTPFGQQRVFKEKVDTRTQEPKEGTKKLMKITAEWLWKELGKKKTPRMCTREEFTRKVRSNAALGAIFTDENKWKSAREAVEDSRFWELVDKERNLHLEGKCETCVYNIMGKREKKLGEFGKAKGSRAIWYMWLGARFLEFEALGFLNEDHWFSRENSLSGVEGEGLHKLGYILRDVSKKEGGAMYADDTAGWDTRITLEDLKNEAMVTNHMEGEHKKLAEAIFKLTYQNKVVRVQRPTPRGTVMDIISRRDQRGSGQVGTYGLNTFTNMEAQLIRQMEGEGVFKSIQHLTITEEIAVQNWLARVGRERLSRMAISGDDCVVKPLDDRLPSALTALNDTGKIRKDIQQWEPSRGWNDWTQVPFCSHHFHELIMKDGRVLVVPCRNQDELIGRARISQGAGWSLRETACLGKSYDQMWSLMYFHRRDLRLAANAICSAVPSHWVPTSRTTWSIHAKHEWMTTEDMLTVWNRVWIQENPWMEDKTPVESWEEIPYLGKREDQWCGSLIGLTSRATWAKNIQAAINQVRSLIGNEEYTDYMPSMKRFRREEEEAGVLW

[7] = HEp-2 cell cytotoxicity, dose response, cytotoxicity control for RSV inhibitor project, HTS (AID 2410); assay type: functional; conditions: human respiratory syncytial virus
Cytochrome P450 3A4 = Cytochrome P450 3A4 (Homo sapiens, UniProt P08684); conditions: Potency;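 also: confirmatory qHTS run detecting inhibitors and substrates of CYP3A4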
Cytochrome P450 3A4, sequence (P08684 whole entry): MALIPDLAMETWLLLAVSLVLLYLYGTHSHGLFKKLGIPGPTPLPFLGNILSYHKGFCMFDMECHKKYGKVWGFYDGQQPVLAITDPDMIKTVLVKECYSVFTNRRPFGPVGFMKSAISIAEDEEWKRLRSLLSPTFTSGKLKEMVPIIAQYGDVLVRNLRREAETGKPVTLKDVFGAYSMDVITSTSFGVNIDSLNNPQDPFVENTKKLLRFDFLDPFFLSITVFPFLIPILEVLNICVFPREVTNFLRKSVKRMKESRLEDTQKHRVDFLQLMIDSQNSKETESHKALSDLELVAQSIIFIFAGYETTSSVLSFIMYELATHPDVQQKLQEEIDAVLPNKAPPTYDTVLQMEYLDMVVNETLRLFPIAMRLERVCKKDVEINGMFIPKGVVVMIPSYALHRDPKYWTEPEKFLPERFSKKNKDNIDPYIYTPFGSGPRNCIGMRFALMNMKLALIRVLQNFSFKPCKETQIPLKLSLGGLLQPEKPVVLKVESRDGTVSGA

[8] = Luminescence Cell-Based Dose Retest to Confirm Inhibitors of Cancer Stem Cells. [Related pubchem assays (depositor defined):AID2717, AID2721]; assay type: functional; conditions: Homo sapiens
INS1 = experiment: beta cell apoptosis inhibitors, cytokine rescue, dose response, luminescence, retest (AID 449756); assay type: functional, cell-based; conditions: Rattus norvegicus;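 also: cell death triggered by IL-1 beta plus TNF-alpha plus IFN-gamma mixture; protective hits raise ATP signal compared with cytokine alone wells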

**Q.** For `O=C1NC(=O)N(c2ccc(Cl)cc2)C(=O)/C1=C/NCCN1CCCCC1`, which EC50 [1] is on record?
**A.** The EC50 was > 300 µM (not active).

**Q.** And the EC50 [2]?
**A.** Its EC50 is > 300 µM (not active).

**Q.** Which IC50 (Phospholipase A2) does the source give for `O=C(COc1ccccc1-c1ccccc1)NCc1cccc(Cl)c1` here?
**A.** The IC50 was 7.72 µM (active).

**Q.** What about the IC50 (Cysteine protease ATG4B) of the same compound?
**A.** The IC50 was 11.4 µM (active).

**Q.** For `O=C(COc1ccccc1/C=C1\SC(=O)NC1=O)Nc1ccc(F)cc1`, which IC50 (Aminopeptidase N) is on record?
**A.** Its IC50 is 27.5 µM (active).

**Q.** For `CCOc1ccc(NCc2ccccc2OCc2cccc(F)c2)cc1`, which IC50 (Phospholipase A2) is on record?
**A.** The IC50 was 5.3 µM (active).

**Q.** And the IC50 (Cysteine protease ATG4B)?
**A.** Its IC50 is 8.88 µM (active).

**Q.** And the EC50 [3]?
**A.** Its EC50 is 1.29 µM (active).

**Q.** And the EC50 [4]?
**A.** The EC50 was > 60 µM (not active).

**Q.** Which results are given for `O=C(O)CSc1nc(-c2ccc(Cl)cc2)nc2c1oc1ccccc12`?
**A.** EC50 [5]: 6.56 µM (active); EC50 [6]: 1.93 µM (active); IC50 (Leucine aminopeptidase): 34.6 µM (active); IC50 (Aminopeptidase N): 82.7 µM (active); IC50 (Genome polyprotein): 40.6 µM (active)

**Q.** With `O=C1CCCC2=C1C(c1ccccc1)C1C(=O)c3ccccc3C1=N2` (stereo not given) as the compound, how does the CC50 [7] read?
**A.** Its CC50 is > 50 µM (active).

**Q.** What about the IC50 (cells) of the same compound?
**A.** Its IC50 is 39.8 µM (active).

**Q.** For `COc1ccc(/C=C/C(=O)NCc2nc3ccccc3[nH]2)cc1OC`, which IC50 (cells) is on record?
**A.** The IC50 was 30.6 µM (active).

**Q.** With `COC(=O)C1=C(C)N(Cc2ccccc2)C2=C3C(=O)N(c4ccccc4)C(=O)C3[C@@](O)(C(=O)OC)C(=O)N2C1c1ccccc1` (stereo not given in full) as the compound, how does the AC50 (Cytochrome P450 3A4) read?
**A.** The AC50 was 3.98 µM (inconclusive) and 3.16 µM (inconclusive).

**Q.** For `Cc1c(Cl)cccc1N=C(S)N1CCN(C(=O)C2CCCO2)CC1` (stereo not given), which EC50 [1] is on record?
**A.** Its EC50 is > 300 µM (not active).

**Q.** And the EC50 [2]?
**A.** Its EC50 is > 300 µM (not active).

**Q.** For `Cc1nc2ccccc2c(=O)n1NC(=O)c1ccco1`, which IC50 (Aminopeptidase N) is on record?
**A.** The IC50 was 70.7 µM (active).

**Q.** Which AC50 [8] does the source give for `N#CCSc1nc2ccccc2c2nc3ccccc3n12` here?
**A.** The AC50 was 3.31 µM (active).

**Q.** What about the CC50 [7] of the same compound?
**A.** Its CC50 is 7.62 µM (active).

**Q.** What about the AC50 (INS1) of the same compound?
**A.** Its AC50 is 8.38 µM (active).

**Q.** And the IC50 (cells)?
**A.** The IC50 was 9.82 µM (active).
